Assay results taken from ChEMBL document CHEMBL1201862, “PubChem BioAssay data set” (2004).
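Interpolation was linear, between the two tested concentrations surrounding the appropriate level; five concentrations were tested over 48 hours in 96-well plates. GI50: concentration for 50% inhibition of growth.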 Activity calls are given as the source filed them. No stated cut-off is given here; in the data, active = GI50 up to about 1.1 µM and inactive = higher.

Key:
Assay in all cases: growth of human tumour cells (NCI), 48 h
[1] = tested on: SK-MEL-28
[2] = tested on: IGROV-1
[3] = tested on: HOP-92
[4] = tested on: COLO 205
[5] = tested on: T47D
[6] = tested on: HL-60
[7] = tested on: 786-0
[8] = tested on: HOP-62
[9] = tested on: TK-10
[10] = tested on: RPMI-8226
[11] = tested on: RXF 393
[12] = tested on: SR
[13] = tested on: U-251
[14] = tested on: Malme-3M
[15] = tested on: UO-31
[16] = tested on: MDA-MB-435
[17] = tested on: OVCAR-4
[18] = tested on: NCI/ADR-RES
[19] = tested on: NCI-H522
[20] = tested on: SF-295

Row | SMILES | GI50 [1] | GI50 [2] | GI50 [3] | GI50 [4] | GI50 [5] | GI50 [6] | GI50 [7] | GI50 [8] | GI50 [9] | GI50 [10] | GI50 [11] | GI50 [12] | GI50 [13] | GI50 [14] | GI50 [15] | GI50 [16] | GI50 [17] | GI50 [18] | GI50 [19] | GI50 [20]
1 | CC(C)(C)OC(=O)NC(CCCCNC(=O)OCc1ccccc1)C(=O)NC(CCCCNC(=O)OCc1ccccc1)C(=O)ON1C(=O)CCC1=O (stereo unspecified) | > 100 µM (inactive) | > 100 µM (inactive) | > 100 µM (inactive) | > 100 µM (inactive) | > 100 µM (inactive) | > 100 µM (inactive) | > 100 µM (inactive) | > 100 µM (inactive) | > 100 µM (inactive) | > 100 µM (inactive) | > 100 µM (inactive) | > 100 µM (inactive) | > 100 µM (inactive) | > 100 µM (inactive) | > 100 µM (inactive) |  |  |  |  | 
2 | COc1cccc(OC)c1NC(=O)C(=O)Nn1c(NNC(=O)c2ccncc2)nc2ccccc2c1=O | > 100 µM (inactive) | > 100 µM (inactive) | > 100 µM (inactive) |  | > 100 µM (inactive) | > 100 µM (inactive) | > 100 µM (inactive) | > 100 µM (inactive) | > 100 µM (inactive) | > 100 µM (inactive) | > 100 µM (inactive) |  | > 100 µM (inactive) | > 100 µM (inactive) | > 100 µM (inactive) | > 100 µM (inactive) | > 100 µM (inactive) | > 100 µM (inactive) | > 100 µM (inactive) | > 100 µM (inactive)
3 | O=C(/C=C1/Nc2ccc([N+](=O)[O-])cc2N/C1=C/C(=O)c1ccc(Cl)cc1)c1ccc(Cl)cc1 |  | > 100 µM (inactive) |  | > 100 µM (inactive) | > 100 µM (inactive) |  | > 100 µM (inactive) | > 100 µM (inactive) | > 100 µM (inactive) |  | 66.5 µM (inactive) | > 100 µM (inactive) | > 100 µM (inactive) | > 100 µM (inactive) | > 100 µM (inactive) | > 100 µM (inactive) | > 100 µM (inactive) | 43.2 µM (inactive) | 4.41 µM (inactive) | 91 µM (inactive)
4 | CCCNC(=O)N(C)C(=O)N1N=C(c2ccccc2)C1c1ccccc1 (stereo unspecified) | > 100 µM (inactive) | 78.7 µM (inactive) | 62.4 µM (inactive) | 54.2 µM (inactive) | > 100 µM (inactive) |  | > 100 µM (inactive) | > 100 µM (inactive) | > 100 µM (inactive) | 38.2 µM (inactive) | > 100 µM (inactive) |  | 89.9 µM (inactive) | 39.6 µM (inactive) | 50.4 µM (inactive) | 95.7 µM (inactive) | 46.1 µM (inactive) | > 100 µM (inactive) | 62.4 µM (inactive) | 64.7 µM (inactive)
5 | CSc1nc(Cl)c2c(n1)Sc1nc3ccccc3n1N=C2 | 40.8 µM (inactive) | 17 µM (inactive) | 18.3 µM (inactive) | 23 µM (inactive) | 23.5 µM (inactive) |  | 28.2 µM (inactive) | 41.7 µM (inactive) | 33.7 µM (inactive) | 21.6 µM (inactive) | 22.6 µM (inactive) |  | 55.6 µM (inactive) | 25.8 µM (inactive) | 18.5 µM (inactive) | 29.7 µM (inactive) | 29.4 µM (inactive) | 21.7 µM (inactive) | 19 µM (inactive) | > 100 µM (inactive)
6 | Nc1cnc(Nc2cccc3ccccc23)o1 | > 10 µM (inactive) | > 10 µM (inactive) |  | > 10 µM (inactive) | > 10 µM (inactive) | > 10 µM (inactive) | > 10 µM (inactive) | > 10 µM (inactive) | > 10 µM (inactive) |  | > 10 µM (inactive) |  | > 10 µM (inactive) | > 10 µM (inactive) | > 10 µM (inactive) | > 10 µM (inactive) | > 10 µM (inactive) | > 10 µM (inactive) | > 10 µM (inactive) | > 10 µM (inactive)
7 | C/C(=C\c1ccc(Cl)c(Cl)c1)[N+](=O)[O-] | 2.31 µM (inactive) | 2.16 µM (inactive) |  |  |  | 1.52 µM (inactive) | 0.579 µM (active) | 2.5 µM (inactive) | 1.86 µM (inactive) |  |  | 0.685 µM (active) | 1.71 µM (inactive) | 2.08 µM (inactive) | 1.32 µM (inactive) | 2.23 µM (inactive) | 2.51 µM (inactive) | 3.41 µM (inactive) | 1.63 µM (inactive) | 3.68 µM (inactive)
8 | O=C1C=CC2(C=C1)CCC(=O)O2 | 16 µM (inactive) | 10.8 µM (inactive) | 11.1 µM (inactive) | 11 µM (inactive) |  |  | 15 µM (inactive) | 20.2 µM (inactive) | 11.9 µM (inactive) | 5.89 µM (inactive) | 14.6 µM (inactive) | 6.38 µM (inactive) | 7.18 µM (inactive) | 5.58 µM (inactive) | 15.1 µM (inactive) | 15.5 µM (inactive) | 14.8 µM (inactive) | 32.9 µM (inactive) | 2.34 µM (inactive) | 19.8 µM (inactive)
9 | Nc1ccc2ccc(-c3ccc[nH]3)nc2n1 | > 100 µM (inactive) | > 100 µM (inactive) | > 100 µM (inactive) | > 100 µM (inactive) | > 100 µM (inactive) |  | > 100 µM (inactive) | > 100 µM (inactive) | > 100 µM (inactive) | > 100 µM (inactive) | > 100 µM (inactive) |  | > 100 µM (inactive) | > 100 µM (inactive) | > 100 µM (inactive) | > 100 µM (inactive) | > 100 µM (inactive) | > 100 µM (inactive) | > 100 µM (inactive) | > 100 µM (inactive)
10 | N#CC(c1cc(Cl)ncn1)c1nc2cc(C(F)(F)F)ccc2s1 (stereo unspecified) | 13 µM (inactive) | 5.87 µM (inactive) | 2.14 µM (inactive) | 3.35 µM (inactive) | 4.29 µM (inactive) |  | 3.3 µM (inactive) | 13.8 µM (inactive) | 6.15 µM (inactive) | 3.78 µM (inactive) | 4.33 µM (inactive) |  | 3.08 µM (inactive) | 4.14 µM (inactive) | 4.97 µM (inactive) | 4.31 µM (inactive) | 2.97 µM (inactive) | 3.08 µM (inactive) | 1.24 µM (inactive) | 7.33 µM (inactive)
11 | CCOC(=O)c1sc2c(c1OC(=O)c1ccccc1)c(=O)n(-c1ccccc1)c(=S)n2-c1ccccc1 | 32.2 µM (inactive) | 19.8 µM (inactive) | 25.7 µM (inactive) | > 100 µM (inactive) | 63.7 µM (inactive) | 36 µM (inactive) | 15.9 µM (inactive) | 22.9 µM (inactive) | 70.1 µM (inactive) | 40.2 µM (inactive) | 43.5 µM (inactive) |  | 20.3 µM (inactive) | 21.7 µM (inactive) |  | 20.9 µM (inactive) | 12.4 µM (inactive) | 19.1 µM (inactive) | 23.6 µM (inactive) | 49.7 µM (inactive)
12 | Cc1cccc(NS(=O)(=O)c2ccc3c(c2)OCCOCCOCCOCCO3)c1 | > 100 µM (inactive) | > 100 µM (inactive) |  | > 100 µM (inactive) | 43.5 µM (inactive) | > 100 µM (inactive) | > 100 µM (inactive) | > 100 µM (inactive) | > 100 µM (inactive) | > 100 µM (inactive) |  | 53 µM (inactive) |  | > 100 µM (inactive) | > 100 µM (inactive) | > 100 µM (inactive) |  |  | 16.1 µM (inactive) | > 100 µM (inactive)
13 | COc1ccc(Cl)cc1NC(=O)O/N=C(\Cl)C(C)C | 18.4 µM (inactive) | 12.2 µM (inactive) | 1.97 µM (inactive) | 2.19 µM (inactive) | 3.38 µM (inactive) | 2.16 µM (inactive) | 13 µM (inactive) | 18.4 µM (inactive) | 2.55 µM (inactive) | 2.06 µM (inactive) | 3.76 µM (inactive) |  | 26.4 µM (inactive) | 1.94 µM (inactive) | 13.8 µM (inactive) | 18.3 µM (inactive) | 17.2 µM (inactive) | 5.27 µM (inactive) | 0.752 µM (active) | 17.9 µM (inactive)
14 | Cc1ccc(S(=O)(=O)Nn2c(S)c(C#N)c(-c3ccc([N+](=O)[O-])cc3)c(C#N)c2=O)cc1 | 32.6 µM (inactive) | 19.4 µM (inactive) | 32.1 µM (inactive) | 29.2 µM (inactive) |  |  | 20 µM (inactive) | 98.2 µM (inactive) | 65.3 µM (inactive) | 16.4 µM (inactive) | 39 µM (inactive) |  | 29 µM (inactive) | 61.5 µM (inactive) |  | 23.2 µM (inactive) | 24.7 µM (inactive) | 33 µM (inactive) | 15.7 µM (inactive) | 49.4 µM (inactive)
15 | OCCNc1ncnc2c1ncn2C1OC(CO)C(O)C1O (stereo unspecified) | > 100 µM (inactive) | > 100 µM (inactive) | 51.4 µM (inactive) | > 100 µM (inactive) | > 100 µM (inactive) | 33.1 µM (inactive) | > 100 µM (inactive) | > 100 µM (inactive) | 71.3 µM (inactive) | 85.7 µM (inactive) | > 100 µM (inactive) |  | > 100 µM (inactive) | > 100 µM (inactive) | 57.4 µM (inactive) | > 100 µM (inactive) | > 100 µM (inactive) | 50.6 µM (inactive) | 47.3 µM (inactive) | > 100 µM (inactive)
16 | CC1=C(CO)C(=O)O[C@@H]([C@@H](C)[C@H]2CC[C@H]3[C@@H]4C[C@@H](O)[C@@]5(O)CC=CC(=O)[C@]5(C)[C@H]4CC[C@]23C)C1 [JABOROSALACTONE D] | 42.1 µM (inactive) | 15.1 µM (inactive) | 42 µM (inactive) | 43.1 µM (inactive) | 58.1 µM (inactive) | 21.1 µM (inactive) | 20.8 µM (inactive) | 64 µM (inactive) | > 100 µM (inactive) | 24.9 µM (inactive) | 22.3 µM (inactive) |  | 37 µM (inactive) | 15.7 µM (inactive) |  | 44.3 µM (inactive) | 32.2 µM (inactive) | 21.1 µM (inactive) | 14.2 µM (inactive) | 61.5 µM (inactive)
